Assay results taken from patent US8404708B2, “Dual NK1/NK3 receptor antagonists” (Hoffmann-La Roche Inc., priority 2004, dated 2013).

Key:
[1] = biological target: T1, Recombinant human NK3 (hNK3) receptor (Homo sapiens, UniProt P29371); assay: NK3 receptor binding, [3H]SR142801 displacement, membrane preparations; settings: second value of the cell pKi NK1/NK3; hNK3 receptor, [3H]SR142801
T1 construct: expressed in transfected cells
T1 sequence (P29371 1-465): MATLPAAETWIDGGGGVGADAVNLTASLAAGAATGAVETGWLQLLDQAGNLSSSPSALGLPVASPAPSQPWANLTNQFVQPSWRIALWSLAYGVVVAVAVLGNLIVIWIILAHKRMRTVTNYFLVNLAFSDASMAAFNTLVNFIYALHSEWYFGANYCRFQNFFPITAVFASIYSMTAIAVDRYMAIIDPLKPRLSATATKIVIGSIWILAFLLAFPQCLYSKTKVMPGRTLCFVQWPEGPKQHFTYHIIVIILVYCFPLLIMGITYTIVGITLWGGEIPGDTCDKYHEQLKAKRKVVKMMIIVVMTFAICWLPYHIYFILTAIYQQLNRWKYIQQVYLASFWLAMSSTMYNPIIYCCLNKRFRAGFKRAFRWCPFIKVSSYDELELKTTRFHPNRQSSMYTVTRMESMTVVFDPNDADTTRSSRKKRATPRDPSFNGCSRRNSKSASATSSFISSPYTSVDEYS
Protocol: Non specific binding was determined using 10 μM SB222200. Assay buffer consisted of Tris-HCl (50 mM, pH 7.4), BSA (0.1%), MnCl2 (4 mM) and phosphoramidon (1 μM). Membrane preparations of hNK3 receptors (approximately 2.5 μg/well in a 96 well plate) were used to initiate the incubation for 90 min at room temperature. This assay was terminated by rapid filtration under vacuum through GF/C filters, presoaked for 90 min with PEI (0.3%), with 3×0.5 ml washes of ice-cold Tris buffer (50 mM, pH 7.4) containing 0.1% BSA. The radioactivity retained on the filters was measured by scintillation counting. All assays were performed in duplicate in at least two separate experiments.

[2] = biological target: human NK1 receptor (Homo sapiens, UniProt P25103); assay: NK1 receptor binding, [3H]substance P displacement, CHO cell membranes; settings: first value of the cell pKi NK1/NK3; human NK1 receptor, [3H]substance P
Sequence of human NK1 receptor (P25103 whole entry): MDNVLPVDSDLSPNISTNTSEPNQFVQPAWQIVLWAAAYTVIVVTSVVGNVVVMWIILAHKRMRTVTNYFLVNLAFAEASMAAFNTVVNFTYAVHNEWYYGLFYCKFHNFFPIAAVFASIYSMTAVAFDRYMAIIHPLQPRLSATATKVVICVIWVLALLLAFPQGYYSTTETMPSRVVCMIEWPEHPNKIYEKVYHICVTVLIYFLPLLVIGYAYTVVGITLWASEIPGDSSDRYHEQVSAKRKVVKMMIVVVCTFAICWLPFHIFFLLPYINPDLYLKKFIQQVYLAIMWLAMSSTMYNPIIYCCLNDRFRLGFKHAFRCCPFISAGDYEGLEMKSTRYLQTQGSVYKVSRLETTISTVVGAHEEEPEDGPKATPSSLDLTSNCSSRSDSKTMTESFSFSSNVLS

SMILES | Ki [1] [nM] | Ki [2] [nM]
Cc1ccccc1-c1cc(N2CC[C@H](O)[C@@H](CO)C2)ncc1N(C)C(=O)C(C)(C)c1cc(C(F)(F)F)cc(C(F)(F)F)c1 (racemic) [Example 191, (3RS,4SR)-2-(3,5-Bis-trifluoromethyl-phenyl)-N-(4-hydroxy-3-hydroxymethyl-4′-o-tolyl-3,4,5,6-tetrahydro-2H-[1,2′]bipyridinyl-5′-yl)-N-methyl-isobutyramide] | 24.5 | 2.04
Cc1ccccc1-c1cc(N2CC[C@@H](O)[C@@H](CO)C2)ncc1N(C)C(=O)C(C)(C)c1cc(C(F)(F)F)cc(C(F)(F)F)c1 (racemic) [Example 192, (3RS,4RS)-2-(3,5-Bis-trifluoromethyl-phenyl)-N-(4-hydroxy-3-hydroxymethyl-4′-o-tolyl-3,4,5,6-tetrahydro-2H-[1,2′]bipyridinyl-5′-yl)-N-methyl-isobutyramide] | 34.7 | 3.02
Cc1ccccc1-c1cc(N2C[C@@H](O)C[C@@H]2CO)ncc1N(C)C(=O)C(C)(C)c1cc(F)cc(C(F)(F)F)c1 (stereo in doubt) [Example 14, (2R,4S)-2-(3-Fluoro-5-trifluoromethyl-phenyl)-N-[6-(4-hydroxy-2-hydroxymethyl-pyrrolidin-1-yl)-4-o-tolyl-pyridin-3-yl]-N-methyl-isobutyramide] | 3.02 | 1.29
CN(C(=O)C(C)(C)c1cc(Cl)cc(Cl)c1)c1cnc(NCCO)cc1-c1ccccc1Cl [Example 1, N-[4-(2-Chloro-phenyl)-6-(2-hydroxy-ethylamino)-pyridin-3-yl]-2-(3,5-dichloro-phenyl)-N-methyl-isobutyramide] | 8.91 | 2.75
CN(C(=O)C(C)(C)c1cc(Cl)cc(Cl)c1)c1cnc(N2CCC[C@H]2CO)cc1-c1ccccc1Cl [Example 2, (S)-N-[4-(2-Chloro-phenyl)-6-(2-hydroxymethyl-pyrrolidin-1-yl)-pyridin-3-yl]-2-(3,5-dichloro-phenyl)-N-methyl-isobutyramide] | 0.891 | 3.39
CN(C(=O)C(C)(C)c1cc(Cl)cc(Cl)c1)c1cnc(N2C[C@H](O)C[C@H]2CO)cc1-c1ccccc1Cl [Example 3, (2S,4R)-N-[4-(2-Chloro-phenyl)-6-(4-hydroxy-2-hydroxymethyl-pyrrolidin-1-yl)-pyridin-3-yl]-2-(3,5-dichloro-phenyl)-N-methyl-isobutyramide] | 0.871 | 1.41
CN(C(=O)C(C)(C)c1cc(F)cc(C(F)(F)F)c1)c1cnc(N2CCC[C@H]2CO)cc1-c1ccccc1Cl [Example 4, (S)-N-[4-(2-Chloro-phenyl)-6-(2-hydroxymethyl-pyrrolidin-1-yl)-pyridin-3-yl]-2-(3-fluoro-5-trifluoromethyl-phenyl)-N-methyl-isobutyramide] | 1.55 | 4.47
CN(C(=O)C(C)(C)c1cc(F)cc(C(F)(F)F)c1)c1cnc(N2C[C@H](O)C[C@H]2CO)cc1-c1ccccc1Cl [Example 5, (2S,4R)-N-[4-(2-Chloro-phenyl)-6-(4-hydroxy-2-hydroxymethyl-pyrrolidin-1-yl)-pyridin-3-yl]-2-(3-fluoro-5-trifluoromethyl-phenyl)-N-methyl-isobutyramide] | 1.74 | 1.55
CN(C(=O)C(C)(C)c1cc(F)cc(F)c1)c1cnc(N2C[C@H](O)C[C@H]2CO)cc1-c1ccccc1Cl [Example 6, (2S,4R)-N-[4-(2-Chloro-phenyl)-6-(4-hydroxy-2-hydroxymethyl-pyrrolidin-1-yl)-pyridin-3-yl]-2-(3,5-difluoro-phenyl)-N-methyl-isobutyramide] | 4.9 | 7.24
COc1cc(Cl)cc(C(C)(C)C(=O)N(C)c2cnc(N3CCC[C@H]3CO)cc2-c2ccccc2Cl)c1 [Example 7, (S)-2-(3-Chloro-5-methoxy-phenyl)-N-[4-(2-chloro-phenyl)-6-(2-hydroxymethyl-pyrrolidin-1-yl)-pyridin-3-yl]-N-methyl-isobutyramide] | 1.78 | 4.79
COc1cc(Cl)cc(C(C)(C)C(=O)N(C)c2cnc(N3C[C@H](O)C[C@H]3CO)cc2-c2ccccc2Cl)c1 [Example 8, (2S,4R)-2-(3-Chloro-5-methoxy-phenyl)-N-[4-(2-chloro-phenyl)-6-(4-hydroxy-2-hydroxymethyl-pyrrolidin-1-yl)-pyridin-3-yl]-N-methyl-isobutyramide] | 1.26 | 1.7
Cc1cc(C)cc(C(C)(C)C(=O)N(C)c2cnc(N3CCC[C@H]3CO)cc2-c2ccccc2Cl)c1 [Example 9, (S)-N-[4-(2-Chloro-phenyl)-6-(2-hydroxymethyl-pyrrolidin-1-yl)-pyridin-3-yl]-2-(3,5-dimethyl-phenyl)-N-methyl-isobutyramide] | 3.63 | 6.46
Cc1cc(C)cc(C(C)(C)C(=O)N(C)c2cnc(N3C[C@H](O)C[C@H]3CO)cc2-c2ccccc2Cl)c1 [Example 10, (2S,4R)-N-[4-(2-Chloro-phenyl)-6-(4-hydroxy-2-hydroxymethyl-pyrrolidin-1-yl)-pyridin-3-yl]-2-(3,5-dimethyl-phenyl)-N-methyl-isobutyramide] | 3.63 | 2.14
Cc1ccccc1-c1cc(N2CCC[C@H]2CO)ncc1N(C)C(=O)C(C)(C)c1cc(Cl)cc(Cl)c1 [Example 11, (S)-2-(3,5-Dichloro-phenyl)-N-[6-(2-hydroxymethyl-pyrrolidin-1-yl)-4-o-tolyl-pyridin-3-yl]-N-methyl-isobutyramide] | 1.1 | 1.78

More lines, now with the values ahead:

Ki [1] [nM] | Ki [2] [nM] | SMILES
25.7 | 1.66 | CN(C(=O)C(C)(C)c1cc(C(F)(F)F)cc(C(F)(F)F)c1)c1cnc(N2CC[C@H](O)[C@H](O)C2)cc1-c1ccccc1Cl (racemic) [Example 187, (3RS,4SR)-2-(3,5-Bis-trifluoromethyl-phenyl)-N-[4′-(2-chloro-phenyl)-3,4-dihydroxy-3,4,5,6-tetrahydro-2H-[1,2′]bipyridinyl-5′-yl]-N-methyl-isobutyramide]
15.5 | 1.32 | CN(C(=O)C(C)(C)c1cc(C(F)(F)F)cc(C(F)(F)F)c1)c1cnc(N2CC[C@@H](O)[C@H](O)C2)cc1-c1ccccc1Cl (racemic) [Example 188, (3RS,4RS)-2-(3,5-Bis-trifluoromethyl-phenyl)-N-[4′-(2-chloro-phenyl)-3,4-dihydroxy-3,4,5,6-tetrahydro-2H-[1,2′]bipyridinyl-5′-yl]-N-methyl-isobutyramide]
3.98 | 1.51 | CN(C(=O)C(C)(C)c1cc(C(F)(F)F)cc(C(F)(F)F)c1)c1cnc(N2CC[C@H](O)C[C@@H]2CO)cc1-c1ccccc1Cl (racemic) [Example 189, (2RS,4SR)-2-(3,5-Bis-trifluoromethyl-phenyl)-N-[4′-(2-chloro-phenyl)-4-hydroxy-2-hydroxymethyl-3,4,5,6-tetrahydro-2H-[1,2′]bipyridinyl-5′-yl]-N-methyl-isobutyramide]
4.07 | 1.58 | Cc1ccccc1-c1cc(N2CC[C@H](O)C[C@@H]2CO)ncc1N(C)C(=O)C(C)(C)c1cc(C(F)(F)F)cc(C(F)(F)F)c1 (racemic) [Example 190, (2RS,4SR)-2-(3,5-Bis-trifluoromethyl-phenyl)-N-(4-hydroxy-2-hydroxymethyl-4′-o-tolyl-3,4,5,6-tetrahydro-2H-[1,2′]bipyridinyl-5′-yl)-N-methyl-isobutyramide]
12 | 1.45 | CN(C(=O)C(C)(C)c1cc(C(F)(F)F)cc(C(F)(F)F)c1)c1cnc(N2CC[C@H](O)[C@@H](CO)C2)cc1-c1ccccc1Cl (racemic) [Example 193, (3RS,4SR)-2-(3,5-Bis-trifluoromethyl-phenyl)-N-[4′-(2-chloro-phenyl)-4-hydroxy-3-hydroxymethyl-3,4,5,6-tetrahydro-2H-[1,2′]bipyridinyl-5′-yl]-N-methyl-isobutyramide]
17.4 | 1.66 | CN(C(=O)C(C)(C)c1cc(C(F)(F)F)cc(C(F)(F)F)c1)c1cnc(N2CC[C@@H](O)[C@@H](CO)C2)cc1-c1ccccc1Cl (racemic) [Example 194, (3RS,4RS)-2-(3,5-Bis-trifluoromethyl-phenyl)-N-[4′-(2-chloro-phenyl)-4-hydroxy-3-hydroxymethyl-3,4,5,6-tetrahydro-2H-[1,2′]bipyridinyl-5′-yl]-N-methyl-isobutyramide]
28.8 | 1.82 | CN(C(=O)C(C)(C)c1cc(C(F)(F)F)cc(C(F)(F)F)c1)c1cnc(N2CCC[C@@H](O)[C@H]2CO)cc1-c1ccccc1Cl (racemic) [Example 195, (2RS,3RS)-2-(3,5-Bis-trifluoromethyl-phenyl)-N-[4′-(2-chloro-phenyl)-3-hydroxy-2-hydroxymethyl-3,4,5,6-tetrahydro-2H-[1,2′]bipyridinyl-5′-yl]-N-methyl-isobutyramide]
